In patent US9623016B2, “Antibacterial compounds” (Emergent Virology LLC, priority 2013, dated 2017):
Values after ≈ are worked out from the molar mass of the structure shown.

Assays:
S. aureus (USA300) [1] = assay: Minimum Inhibitory Concentration (MIC); assay type: cell-based; settings: for visible growth: Table 3; for growth (OD600): Table 4
Method: The MIC assay is a technique used to determine the lowest concentration of a particular antibiotic needed to inhibit visible growth of bacteria. In this method, two fold serial dilutions of the compound were prepared in broth media. An inoculum of overnight bacterial cultures will be prepared in the same broth medium. The serial dilution tubes will be inoculated with 0.025 ml of undiluted over-night culture (1:100), a 1×10-2 dilution (1:10,000), or a 1×10-4 dilution (1:1,000,000) of bacterial suspension. Results were recorded after 24 hour incubation at 35° C. without shaking by measuring OD600. The MIC is determined by the lowest concentration of compound where no growth is visible.

E. coli K12 = assay: Disc diffusion; assay type: cell-based
Method: (§1) Different concentrations of antimicrobial discs were made by incorporation of defined amount of the compound and were stored in a refrigerator (4° C.). Plates were swabbed in three directions with test bacteria to give uniform growth with 0.5 McFarland inocula. Antimicrobial discs were applied to the plates as soon as possible, but no longer than 15 minutes after inoculation. The plates were incubated at 37° C. for 18 hours. The growth inhibition zones around the disc were measured.

S. aureus USA300 = assay: Disc diffusion; assay type: cell-based
Method: as §1

P. aeruginosa 4961 = assay: Disc diffusion; assay type: cell-based
Method: as §1

S. pneumoniae ATCC 6301 = assay: Disc diffusion; assay type: cell-based
Method: as §1

P. aeruginosa 4990 = assay: Disc diffusion; assay type: cell-based
Method: as §1

[2] = test system: E. coli In-house WT (SLR-IBT); assay: Disc diffusion; assay type: cell-based
Method: as §1

S. aureus Col (MRSA) = assay: Disc diffusion; assay type: cell-based
Method: as §1

P. aeruginosa 4858 [3] = assay: Disc diffusion; assay type: cell-based
Method: as §1

S. aureus 8325-4 = assay: Disc diffusion; assay type: cell-based
Method: as §1

B. subtilus ATCC 6051 = assay: Disc diffusion; assay type: cell-based
Method: as §1

B. subtilis = assay: Minimum Bactericidal Concentration (MBC); assay type: cell-based
Method: (§2) MBC is the lowest concentration of compound required to kill an organism. […] In the case of small colony variants, growth might not occur earlier than 48 hours.

P. aeruginosa 4858 [4] = assay: Minimum Bactericidal Concentration (MBC); assay type: cell-based
Method: as §2

S. aureus (Col) = assay: Minimum Bactericidal Concentration (MBC); assay type: cell-based
Method: as §2

S. aureus (8324-5) = assay: Minimum Bactericidal Concentration (MBC); assay type: cell-based
Method: as §2

S. aureus = assay: Minimum Bactericidal Concentration (MBC); assay type: cell-based; settings: UV-5; S. Aureus NCTC8325-4
Method: as §2

S. aureus (USA300) [5] = assay: Minimum Bactericidal Concentration (MBC); assay type: cell-based
Method: as §2

[6] = test system: Staphylococcus aureus USA300
Method: The challenge inoculum included 6.13e4 cfu USA300+3% Hog mucin which causes bacteremia/sepsis within 24-72 h. […] The mice used were 6-8 week old female BALB/c mice in groups of 10. One group of 5 mice was also included to examine the potential toxicity of 3% hog mucin. Endpoint was day 10 post infection, death, or euthanasia Animals displaying severe illness as determined by >30% weight loss, extreme lethargy, or paralysis were euthanized. Observation included daily weight, health checks, and temperatures starting with the initiation of dosing until 10 days post challenge.

CC[C@H]1OC(=O)[C@H](C)[C@@H](O[C@H]2C[C@@](C)(OC)[C@@H](O)[C@H](C)O2)[C@H](C)[C@@H](O[C@@H]2O[C@H](C)C[C@H](N(C)C)[C@H]2O)[C@](C)(O)C[C@@H](C)C(=O)[C@H](C)[C@@H](O)[C@]1(C)O [Erythromycin, reference compound]
visible growth (S. aureus (USA300) [1]; Erythromycin 0.20 ug/ml): +
growth (OD600) (S. aureus (USA300) [1]; Erythromycin 0.20 ug/ml): + (+ OD600 <0.05)
visible growth (S. aureus (USA300) [1]; Erythromycin 0.39 ug/ml): +
growth (OD600) (S. aureus (USA300) [1]; Erythromycin 0.39 ug/ml): + (+ OD600 <0.05)
visible growth (S. aureus (USA300) [1]; Erythromycin 0.78 ug/ml): +
growth (OD600) (S. aureus (USA300) [1]; Erythromycin 0.78 ug/ml): + (+ OD600 <0.05)
visible growth (S. aureus (USA300) [1]; Erythromycin 1.56 ug/ml): +
growth (OD600) (S. aureus (USA300) [1]; Erythromycin 1.56 ug/ml): + (+ OD600 <0.05)
visible growth (S. aureus (USA300) [1]; Erythromycin 3.13 ug/ml): +
growth (OD600) (S. aureus (USA300) [1]; Erythromycin 3.13 ug/ml): + (+ OD600 <0.05)
visible growth (S. aureus (USA300) [1]; Erythromycin 6.25 ug/ml): +
growth (OD600) (S. aureus (USA300) [1]; Erythromycin 6.25 ug/ml): + (+ OD600 <0.05)
visible growth (S. aureus (USA300) [1]; Erythromycin 25.00 ug/ml): −
growth (OD600) (S. aureus (USA300) [1]; Erythromycin 25.00 ug/ml): − (− OD600 >0.05)
visible growth (S. aureus (USA300) [1]; Erythromycin 50 ug/ml): −
growth (OD600) (S. aureus (USA300) [1]; Erythromycin 50 ug/ml): − (− OD600 >0.05)
visible growth (S. aureus (USA300) [1]; Erythromycin 100 ug/ml): −
growth (OD600) (S. aureus (USA300) [1]; Erythromycin 100 ug/ml): − (− OD600 >0.05)
zone of inhibition at 10 µg/disc (E. coli K12; Escherichia coli, K12, read-out: Inhibition zone diameter): 20 mm
zone of inhibition at 10 µg/disc (S. aureus USA300; Staphylococcus aureus, USA300, read-out: Inhibition zone diameter): 15 mm
zone of inhibition at 10 µg/disc (P. aeruginosa 4961; Pseudomonas aeruginosa, 4961, read-out: Inhibition zone diameter): 18 mm
zone of inhibition at 10 µg/disc (S. pneumoniae ATCC 6301; Streptococcus pneumoniae, ATCC6301, read-out: Inhibition zone diameter): 38 mm
zone of inhibition at 10 µg/disc (P. aeruginosa 4990; Pseudomonas aeruginosa, 4990, read-out: Inhibition zone diameter): 20 mm
zone of inhibition at 10 µg/disc ([2]; Escherichia coli, read-out: Inhibition zone diameter): 15 mm
zone of inhibition at 10 µg/disc (S. aureus Col (MRSA); Staphylococcus aureus, MRSA, read-out: Inhibition zone diameter): 42 mm
zone of inhibition at 10 µg/disc (P. aeruginosa 4858 [3]; Pseudomonas aeruginosa, 4858, read-out: Inhibition zone diameter): 8 mm
zone of inhibition at 10 µg/disc (S. aureus 8325-4; Staphylococcus aureus, 83254, read-out: Inhibition zone diameter): 35 mm
zone of inhibition at 10 µg/disc (B. subtilus ATCC 6051; read-out: Inhibition zone diameter): 35 mm

[N-]=[N+]=Nc1ccc(NCCCCCCN2C[C@H](O)[C@@H](O)[C@H](O)[C@H]2CO)c([N+](=O)[O-])c1 [UV-5, N—(N-{4′-azido-2′-nitrophenyl}-6-aminohexyl)deoxynojirimycin]
MBC (B. subtilis; UV-5): 2500 µg/mL (≈ 5.89 mM)
growth after re-inoculation on BHI agar (B. subtilis; UV-5 0.16 mg/ml): +
growth after re-inoculation on BHI agar (B. subtilis; UV-5 0.3 mg/ml): +
growth after re-inoculation on BHI agar (B. subtilis; UV-5 0.62 mg/ml): +
growth after re-inoculation on BHI agar (B. subtilis; UV-5 10 mg/ml): −
growth after re-inoculation on BHI agar (B. subtilis; UV-5 20 mg/ml): −
MBC (P. aeruginosa 4858 [4]; UV-5): 5000 µg/mL (≈ 11.8 mM)
growth after re-inoculation on BHI agar (P. aeruginosa 4858 [4]; UV-5 0.16 mg/ml): +
growth after re-inoculation on BHI agar (P. aeruginosa 4858 [4]; UV-5 0.3 mg/ml): +
growth after re-inoculation on BHI agar (P. aeruginosa 4858 [4]; UV-5 0.62 mg/ml): +
growth after re-inoculation on BHI agar (P. aeruginosa 4858 [4]; UV-5 2.5 mg/ml): +
growth after re-inoculation on BHI agar (P. aeruginosa 4858 [4]; UV-5 5 mg/ml): −
growth after re-inoculation on BHI agar (P. aeruginosa 4858 [4]; UV-5 10 mg/ml): −
growth after re-inoculation on BHI agar (P. aeruginosa 4858 [4]; UV-5 20 mg/ml): −
growth after re-inoculation on BHI agar (S. aureus (Col); UV-5 0.16 mg/ml): +
growth after re-inoculation on BHI agar (S. aureus (Col); UV-5 0.3 mg/ml): +
growth after re-inoculation on BHI agar (S. aureus (Col); UV-5 0.62 mg/ml): +
growth after re-inoculation on BHI agar (S. aureus (Col); UV-5 10 mg/ml): −
growth after re-inoculation on BHI agar (S. aureus (Col); UV-5 20 mg/ml): −
MBC (S. aureus (Col); UV-5, S. aureus COL MRSA): 2500 µg/mL (≈ 5.89 mM)
growth after re-inoculation on BHI agar (S. aureus (8324-5); UV-5 0.16 mg/ml): +
growth after re-inoculation on BHI agar (S. aureus (8324-5); UV-5 0.3 mg/ml): +
growth after re-inoculation on BHI agar (S. aureus (8324-5); UV-5 0.62 mg/ml): +
growth after re-inoculation on BHI agar (S. aureus (8324-5); UV-5 2.5 mg/ml): +
growth after re-inoculation on BHI agar (S. aureus (8324-5); UV-5 5 mg/ml): +
growth after re-inoculation on BHI agar (S. aureus (8324-5); UV-5 10 mg/ml): −
growth after re-inoculation on BHI agar (S. aureus (8324-5); UV-5 20 mg/ml): −
MBC (S. aureus): 10000 µg/mL (≈ 23.6 mM)
MBC (S. aureus (USA300) [5]; UV-5): 20000 µg/mL (≈ 47.1 mM)
growth after re-inoculation on BHI agar (S. aureus (USA300) [5]; UV-5 0.16 mg/ml): +
growth after re-inoculation on BHI agar (S. aureus (USA300) [5]; UV-5 0.3 mg/ml): +
growth after re-inoculation on BHI agar (S. aureus (USA300) [5]; UV-5 0.62 mg/ml): +
growth after re-inoculation on BHI agar (S. aureus (USA300) [5]; UV-5 2.5 mg/ml): +
growth after re-inoculation on BHI agar (S. aureus (USA300) [5]; UV-5 5 mg/ml): +
growth after re-inoculation on BHI agar (S. aureus (USA300) [5]; UV-5 10 mg/ml): +
growth after re-inoculation on BHI agar (S. aureus (USA300) [5]; UV-5 20 mg/ml): −
Inhibition zone diameter (E. coli K12; UV-5 160 ug disc): 12 mm
Inhibition zone diameter (S. aureus USA300; UV-5 160 ug disc): 16 mm
Inhibition zone diameter (P. aeruginosa 4961; UV-5 160 ug disc): 14 mm
Inhibition zone diameter (S. pneumoniae ATCC 6301; UV-5 160 ug disc): 17 mm
Inhibition zone diameter (P. aeruginosa 4990; UV-5 160 ug disc): 6 mm
Inhibition zone diameter ([2]; UV-5 160 ug disc): 15 mm
Inhibition zone diameter (S. aureus Col (MRSA); UV-5 160 ug disc): 16 mm
Inhibition zone diameter (P. aeruginosa 4858 [3]; UV-5 160 ug disc): 6 mm
Inhibition zone diameter (S. aureus 8325-4; UV-5 160 ug disc): 16 mm
Inhibition zone diameter (B. subtilus ATCC 6051; UV-5 160 ug disc): 18 mm
significance of survival increase vs water ([6]; 100 mg/kg UV-5 BID): not a statistically significant increase in survival
survival ([6]; 100 mg/kg UV-5 orally BID for 10 days, from 3 days before IP challenge, water control 30%): 70%
toxicity at the dose/regimen used ([6]; 100 mg/kg UV-5 orally BID, mice): some toxicity was observed
